Here are results for 8 compounds from US4704403A, “3-(2,2,2-trisubstituted hydrazinium) propionates” (priority 1983, dated 1987).

Usually LD50 stands for the dose at which mortality reaches 50%. Low values mean a more toxic substance, high ones a less toxic substance.

Each structure is given as a SMILES string.

Data set [1] in a line: Acute toxicity upon intraperitoneal administration to white mice. It is filed as in vivo. The settings on record: mouse, in vivo, ip, 14 days observation, average values with confidential limits at P=0.05. As to the method: (§1) The acute toxicity of the compounds according to the present invention was studied on white mice of both sexes with a mass of 20-25 g. A saturated aqueous solution of the compounds or a suspension in Tween-80 was administered to the animals intraperitoneally. The observation over the animals was carried out for 14 days. The results obtained were processed following the Litchfield-Wilkoxon method. As it follows from the data shown in Table 5 hereinbelow, the studied compounds have a very low acute toxicity, thus providing a large spectrum of the therapeutic effect.

In a further data set the test system is white mice. The description is as above. The format is in vivo. Particulars: i.p. As for the experimental part: as §1
In data set [2] the test system is arrhythmia caused by introduction of calcium chloride. The experiment in a line: Antiarrhythmic activity on the model of arrhythmia caused by calcium chloride (antagonism towards calcium). The format is in vivo, mice. The settings on record: for Dose of calcium chloride causing arrhythmia: control 85.0; for Dose of calcium chloride causing heart arrest: control 100.0.
Experimental: In experiments on white mice with a mass of 18-25 g narcotized with urethane an electrocardiogram was recorded in the second standard lead. A 2% solution of calcium chloride was introduced into the tail vein at a constant rate (0.01 ml for 2 seconds). The dose of calcium chloride causing arrhythmia and the dose causing heart arrest were determined. In experimental groups the test compounds were administered 20-40 minutes prior to the beginning of the experiment intraperitoneally.

Data set [3] relates to hypertensive male rats of the Akamoto-Aoki line. Nature of the data set: Variation of arterial pressure upon intraperitoneal administration to hypertensive rats. It is filed as in vivo. As to the method: The study of hypotensive properties of the compounds of this invention has been carried out of hypertensive male rats of the Akamoto-Aoki line aged 25-30 weeks. The animals were divided into groups (7-10 rats in each) and for 2 weeks before the beginning of the experiment they were subjected to an every-day training for adaptation to the unit for measurements of the arterial pressure. The systolic and diastolic arterial pressure were measured indirectly on the tail artery. The level of the arterial pressure prior to administration of the test compounds was measured by way of a triple determination thereof--2 days, one day and right before the administration of the preparation. The compounds were administered intraperitoneally in the form of a 2.5% aqueous solution or a 2.5% suspension in Twin-80 in the dose of 50 mg/kg. The measurement of the arterial pressure was effected 30 minutes, 1, 2, 3 and 4 hours and in some cases 24 hours after the administration of the preparation. For a number of compounds featuring a high efficiency, also determined was the dose causing reduction of the arterial pressure by 30% as compared with the starting level (ED30). The statistical processing of the data obtained was carried out using the Student certainty criterion.

Data set [4] has as its system spontaneously hypertensive rats of the Akamoto-Aoki line. Nature of the data set: Systolic arterial pressure of spontaneously hypertensive rats upon a repeated peroral administration. It is filed as in vivo. As to the method:
Thus, after a four-days course of administration (once a day, per os) of the compounds according to the present invention an essential reduction of the arterial pressure in the test animals is observed which is not returned to the initial level even an expiration of four days after discontinuation of the preparation administration, whereas the hypotensive effect of nifedipine is manifested for only 8 hours.

[5] abbreviates: 30 minutes, 50 mg/kg i.p. (nifedipine 1 mg/kg i.p.).
[6] abbreviates: 1 hour, 50 mg/kg i.p. (nifedipine 1 mg/kg i.p.).
The mark [7] stands for this setting: 2 hours, 50 mg/kg i.p. (nifedipine 1 mg/kg i.p.).
[8] abbreviates: 4 hours, 50 mg/kg i.p. (nifedipine 1 mg/kg i.p.).
Where [9] appears, read: after four-days p.o. course, benzyl 40 mg/kg, allyl 50 mg/kg, nifedipine dose not given.
Where [10] appears, read: p.o. once a day, benzyl 40 mg/kg, allyl 50 mg/kg, nifedipine dose not given.
Setting [11] is: p.o., benzyl 40 mg/kg, allyl 50 mg/kg, nifedipine dose not given.

On to `CC[N+](CC)(CC)NCCC(=O)[O-]` [3-(2,2,2-Triethylhydrazinium)propionate, 3-(2,2,2-triethylhydrazinium)propionate monohydrate], for which the LD50 at 336 h in data set [1] was above 3000 mg/kg. Besides, the “Relative toxicity with respect to quinidine (LD50 / LD50 of quinidine)” value (“Relative toxicity … (LD50 / LD50 of quinidine)” for short) in the data set on white mice is listed as “above 19.2”. Also, in data set [2] (compound dose 5 mg/kg i.p.), the “Dose of calcium chloride causing arrhythmia” value was 100.0 and the “Dose of calcium chloride causing heart arrest” value turned out to be 120.0. Further, in data set [2] (compound dose 15 mg/kg i.p.), the “Dose of calcium chloride causing arrhythmia” value is 127.0 and the “Dose of calcium chloride causing heart arrest” value was determined as 142.5.

For the compound `C[N+](C)(CC[N+](C)(C)NCCC(=O)[O-])NCCC(=O)[O-]` [3-(2,2-dimethyl-2-[1',1'-dimethyl-2'-carboxylatoethylhydrazin-1'-ium]-ethylhydrazinium)propionate dihydrate], the LD50 at 336 h in data set [1] amounted to 2100 mg/kg. In addition, in the data set on white mice, the “Relative toxicity … (LD50 / LD50 of quinidine)” value came out at 13.4. In data set [2] (compound dose 5 mg/kg i.p.), the “Dose of calcium chloride causing arrhythmia” value is recorded as 96.0 and the “Dose of calcium chloride causing heart arrest” value was found to be 112.0. Also, in data set [2] (compound dose 15 mg/kg i.p.), the “Dose of calcium chloride causing arrhythmia” value was 108.5 and the “Dose of calcium chloride causing heart arrest” value was 120.0.

For `C[N+](C)(Cc1cccc2ccccc12)NCCC(=O)[O-]` [3-(2,2-dimethyl-2-naphthylmethylhydrazinium)propionate], the “Average variation of the diastolic arterial pressure” value in data set [3] (setting [5]) is listed as 0 % of the initial; in data set [3] (setting [6]), -3 % of the initial; in data set [3] (setting [7]), -2 % of the initial; in data set [3] (setting [8]), -14 % of the initial; in data set [3] (24 hours, 50 mg/kg i.p.) it was -7 % of the initial. For the same compound, the “Average variation of the systolic arterial pressure” value in data set [3] (setting [5]) was 0 % of the initial; in data set [3] (setting [6]), 0 % of the initial; in data set [3] (setting [7]), -3 % of the initial; in data set [3] (setting [8]) it was -5 % of the initial; in data set [3] (24 hours, 50 mg/kg i.p.), -4 % of the initial. Moreover, the 50% lethal dose (LD50) at 336 h in data set [1] is above 3000 mg/kg. The “Relative toxicity … (LD50 / LD50 of quinidine)” value with white mice was “above 19.2”. The figures for the “Dose of calcium chloride causing arrhythmia” value in data set [2] (compound dose 5 mg/kg i.p.) and in data set [2] (compound dose 15 mg/kg i.p.) were 108.0 and 126.7, respectively. Also, the “Dose of calcium chloride causing heart arrest” value in data set [2] (compound dose 5 mg/kg i.p.) came to 132.5; in data set [2] (compound dose 15 mg/kg i.p.), 143.0.

Regarding `C#CC[N+](C)(C)NCCC(=O)[O-]` [3-(2,2-dimethyl-2-propargylhydrazinium)propionate hydrogen bromide], the “Average variation of the diastolic arterial pressure” value in data set [3] (setting [5]) is listed as -17 % of the initial; in data set [3] (setting [6]), -16 % of the initial; in data set [3] (setting [7]) it was -7 % of the initial; in data set [3] (setting [8]) it was -10 % of the initial. Also, the “Average variation of the systolic arterial pressure” value is -6 % of the initial in data set [3] (setting [5]), -10 % of the initial in data set [3] (setting [6]), -10 % of the initial in data set [3] (setting [7]) and -6 % of the initial in data set [3] (setting [8]). Further, the LD50 at 336 h in data set [1] is 1650 mg/kg. Moreover, the “Relative toxicity … (LD50 / LD50 of quinidine)” value in the data set with white mice is given as 10.5. Besides, the entries for the “Dose of calcium chloride causing arrhythmia” value in data set [2] (compound dose 5 mg/kg i.p.) and in data set [2] (compound dose 15 mg/kg i.p.) were 110.4 and 120.0, respectively. Further, the figures for the “Dose of calcium chloride causing heart arrest” value in data set [2] (compound dose 5 mg/kg i.p.) and in data set [2] (compound dose 15 mg/kg i.p.) were 125.0 and 135.0, respectively.

In data set [1], `CCC[N+](C)(C)NCCC(=O)[O-]` [3-(2,2-dimethyl-2-propylhydrazinium)propionate] yielded an LD50 at 336 h of 1800 mg/kg. For the same compound, the “Relative toxicity … (LD50 / LD50 of quinidine)” value in the data set on white mice is 11.5. Moreover, in data set [2] (compound dose 5 mg/kg i.p.), the “Dose of calcium chloride causing arrhythmia” value is reported as 112.5 and the “Dose of calcium chloride causing heart arrest” value is recorded as 123.0. In data set [2] (compound dose 15 mg/kg i.p.), the “Dose of calcium chloride causing arrhythmia” value was 125.3 and the “Dose of calcium chloride causing heart arrest” value was 140.5.

As to `CC[N+](C)(CC)NCCC(=O)[O-]` [3-(2-methyl-2,2-diethylhydrazinium)propionate monohydrate], the “Average variation of the diastolic arterial pressure” value in data set [3] (setting [5]) was “+10 % of the initial”; in data set [3] (setting [6]), -4 % of the initial; in data set [3] (setting [7]) it was “+1 % of the initial”; in data set [3] (setting [8]) it was -8 % of the initial. In addition, the “Average variation of the systolic arterial pressure” value in data set [3] (setting [5]) is on record as “+4 % of the initial”; in data set [3] (setting [6]), “+2 % of the initial”; in data set [3] (setting [7]) it was 0 % of the initial; in data set [3] (setting [8]), -6 % of the initial. Besides, in data set [1], the 50% lethal dose (LD50) at 336 h came out at 1450 mg/kg. Also, the “Relative toxicity … (LD50 / LD50 of quinidine)” value in the data set on white mice was 9.3. The results for the “Dose of calcium chloride causing arrhythmia” value in data set [2] (compound dose 5 mg/kg i.p.) and in data set [2] (compound dose 15 mg/kg i.p.) were 105.5 and 120.0, respectively. For the same compound, the “Dose of calcium chloride causing heart arrest” value is 118.6 in data set [2] (compound dose 5 mg/kg i.p.) and 136.0 in data set [2] (compound dose 15 mg/kg i.p.).

For `COC(=O)C1=C(C)NC(C)=C(C(=O)OC)C1c1ccccc1[N+](=O)[O-]` [Nifedipine, reference compound], in data set [3] (setting [5]), the “Average variation of the diastolic arterial pressure” value is given as -8 % of the initial and the “Average variation of the systolic arterial pressure” value was -4 % of the initial. For the same compound, in data set [3] (setting [6]), the “Average variation of the diastolic arterial pressure” value is reported as -14 % of the initial and the “Average variation of the systolic arterial pressure” value is reported as -12 % of the initial. Also, in data set [3] (setting [7]), the “Average variation of the diastolic arterial pressure” value is recorded as -21 % of the initial and the “Average variation of the systolic arterial pressure” value is listed as -8 % of the initial. In data set [3] (setting [8]), the “Average variation of the diastolic arterial pressure” value is recorded as -31 % of the initial and the “Average variation of the systolic arterial pressure” value is listed as -11 % of the initial. Further, in data set [4] (setting [9]), the “Systolic arterial pressure, 5th day” value is listed as 178 mm Hg; the “Systolic arterial pressure, 8th day” value came out at 186 mm Hg; the “Systolic arterial pressure, 10th day” value was 182 mm Hg. Moreover, the “Systolic arterial pressure, 2nd day after administration” value in data set [4] (p.o. once a day, allyl 50 mg/kg, nifedipine dose not given) is 148 mm Hg. Further, in data set [4] (p.o. once a day, benzyl 40 mg/kg (initial 195.8), allyl 50 mg/kg (initial 176.6), nifedipine dose not given (initial 184.0)), the “Systolic arterial pressure, 1st day after administration” value was 150.0 mm Hg. In data set [4] (setting [10]), the “Systolic arterial pressure, 2nd day before administration” value is reported as 186 mm Hg; the “Systolic arterial pressure, 3rd day after administration” value stood at 153 mm Hg; the “Systolic arterial pressure, 4th day after administration” value is listed as 146 mm Hg; the “Systolic arterial pressure, 4th day before administration” value is on record as 180 mm Hg. The “Systolic arterial pressure, 3rd day before administration” value in data set [4] (p.o. once a day, benzyl 40 mg/kg, nifedipine dose not given) was 183 mm Hg. The “Percent in parentheses (change of systolic pressure from initial), 2nd day after administration” value in data set [4] (p.o., allyl 50 mg/kg, nifedipine dose not given) is 20%. In data set [4] (setting [11]), the “Percent in parentheses (change of systolic pressure from initial), 1st day after administration” value turned out to be 18%; the “Percent in parentheses (change of systolic pressure from initial), 3rd day after administration” value is 17%; the “Percent in parentheses (change of systolic pressure from initial), 4th day after administration” value is reported as 21%; the “Percent in parentheses (change of systolic pressure from initial), 4th day before administration” value is on record as 2%. Moreover, in data set [4] (setting [11]), the “Percent in parentheses (change of systolic pressure from initial), 5th day” value is recorded as 3%. The “duration of hypotensive effect” value in data set [4] (repeated p.o.) is 8 h.

For the compound `C=C[C@H]1C[N@@]2CC[C@H]1C[C@@H]2[C@@H](O)c1ccnc2ccc(OC)cc12` [Quinidine, reference compound], the LD50 at 336 h in data set [1] stood at 156 mg/kg. Besides, the “Relative toxicity … (LD50 / LD50 of quinidine)” value in the data set with white mice worked out at 1. For the same compound, in data set [2] (compound dose 3 mg/kg i.p.), the “Dose of calcium chloride causing arrhythmia” value was 126.9 and the “Dose of calcium chloride causing heart arrest” value amounted to 136.0. In data set [2] (compound dose 10 mg/kg i.p.), the “Dose of calcium chloride causing arrhythmia” value amounted to 120.8 and the “Dose of calcium chloride causing heart arrest” value is 133.5.
